Laboratory results reported in patent publication US6369083B1, “2-methoxyimino-2 (pyrinyloxymethyl) phenyl acetamides with polyether derivatives on the pyridine ring” (Dow AgroSciences LLC, priority 1998, dated 2002).

How the values were obtained:
Type in all cases: in vivo
[1] = test system: Plasmopara viticola; test: Downy Mildew of Grape (PLASVI), 96 hour protectant; conditions: grape vines (cultivar Carignane), sprayed at 100 ppm, inoculated after 96 hours (protectant)
Experimental: Compound Formulation: […] Final treatment volumes were obtained by adding nine volumes 0.05kOO aqueous Tween-20 or Triton X-100, depending upon the pathogen. Downy Mildew of Grape (Plasmogara viticola-[…]) (96 Hour Protectant): Vines (cultivar Carignane) were grown from seed in a soilless peat-based potting mixture (Metromix) until the seedlings were 10-20 cm tall. These plants were then sprayed to run off with the test compound at a rate of 100 ppm. After 96 hours the test plants were inoculated by spraying with an aqueous sporangia suspension of Plasmopara viticola. The plants were then transferred to the greenhouse until disease developed on the untreated control plants. The following table presents the activity of typical compounds of the present invention when evaluated in these experiments. The effectiveness of the test compounds in controlling disease was rated using the following scale: […]

[2] = test system: Erysiphe graminis; test: Powdery Mildew of Wheat (ERYSGT); conditions: wheat (cultivar Monon), inoculated, sprayed at 25 ppm after 48 hours
Experimental: Compound Formulation: […] Final treatment volumes were obtained by adding nine volumes 0.05kOO aqueous Tween-20 or Triton X-100, depending upon the pathogen. Powdery Mildew of Wheat (Erysiphe graminis-[…]): Wheat (cultivar Monon) was grown in a soilless peat-based potting mixture (Metromix) until the seedlings were 1-2 leaf (BBCH 12). These plants were then inoculated with Erysiphe graminis by dusting spores from stock plants onto the test plants. After 48 hours the plants were sprayed to run off with the test compound at a rate of 25 ppm and then kept in the greenhouse until disease developed on the untreated control plants. The following table presents the activity of typical compounds of the present invention when evaluated in these experiments. The effectiveness of the test compounds in controlling disease was rated using the following scale: […]

[3] = test system: Leptosphaeria nodorum; test: Glume blotch of wheat (LEPTNO); conditions: wheat (cultivar Monon), sprayed at 100 ppm, inoculated after 24 hours
Experimental: (§1) Compound Formulation: […] Final treatment volumes were obtained by adding nine volumes 0.05kOO aqueous Tween-20 or Triton X-100, depending upon the pathogen. Glume blotch of wheat (Leptosphaeria nodorum-[…]): Wheat (cultivar Monon) was grown from seed in a soilless peat-based potting mixture (Metromix) until the seedlings were 1-2 leaf (BBCH 12). These plants were then sprayed to run off with the test compound at a rate of 100 ppm. After 24 hours the test plants were inoculated with an aqueous spore suspension of Leptosphaeria nodorum. The plants were then transferred to the greenhouse until disease developed on the untreated control plants. Brown rust (Puccinia recondita-PUCCRT): Wheat (cultivar Monon) was grown from seed in a soilless peat-based potting mixture (Metromix) until the seedlings were 1-2 leaf (BBCH 12). These plants were then sprayed to run off with the test compound at a rate of 100 ppm. After 24 hours the test plants were inoculated with an aqueous spore suspension of Puccinia recondita. The plants were then transferred to the greenhouse until disease developed on the untreated control plants. The following table presents the activity of typical compounds of the present invention when evaluated in these experiments. The effectiveness of the test compounds in controlling disease was rated using the following scale: […]

[4] = test system: Puccinia recondita; test: Brown rust (PUCCRT); conditions: wheat (cultivar Monon), sprayed at 100 ppm, inoculated after 24 hours
Experimental: as §1

Row | Structure (SMILES) | PLASVI control of plant disease [1] | ERYSGT control of plant disease [2] | LEPTNO control of plant disease [3] | PUCCRT control of plant disease [4]
1 | CNC(=O)C(=NOC)c1ccccc1COc1cccc(OCC2COC(C)(C)O2)n1 (stereo not drawn) [Compound 2, Benzeneacetamide, 2-[[[6-((2,2-dimethyl-1,3-dioxolanyl)-4-methoxy)-2-pyridinyl]oxy]methy]-α-(methoxyimino)-N-methyl-] | ++ (++ = 75-100 % control of plant disease) | + (+ = 25-74% control of plant disease) | ++ (++ = 75-100 % control of plant disease) | ++ (++ = 75-100 % control of plant disease)
2 | CNC(=O)C(=NOC)c1ccccc1COc1cccc(OCCCOC(C)C)n1 [Compound 54] | ++ (++ = 75-100 % control of plant disease) | ++ (++ = 75-100 % control of plant disease) | ++ (++ = 75-100 % control of plant disease) | –
3 | CNC(=O)C(=NOC)c1ccccc1COc1nc(OCC2COC(C)(C)O2)c(Cl)cc1Cl (centres unmarked) [Compound 1] | ++ (++ = 75-100 % control of plant disease) | + (+ = 25-74% control of plant disease) | ++ (++ = 75-100 % control of plant disease) | ++ (++ = 75-100 % control of plant disease)
